Test results reported in the supplement of paper PMC10307832.

How the values were obtained:
Assay in all cases: relative viability (nuclei count vs DMSO), 5 days (fraction); higher = more cells survive
[1] = compound: C[C@]12O[C@H](C[C@]1(O)CO)n1c3ccccc3c3c4c(c5c6ccccc6n2c5c31)CNC4=O [Lestaurtinib] + Nc1ncn([C@H]2C[C@H](O)[C@@H](CO)O2)c(=O)n1 [Decitabine] (partner 2 µM)
Summary of the method: (§1)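 Each reported value is a median over duplicate plates. It expresses relative viability: treated-well nuclei count divided by vehicle-well nuclei count. Lung cancer cell lines in 1536-well plates were dosed by pin tool a day after seeding, alone with one drug or with a fixed anchor-drug dose plus five library-drug doses (not always all listed) in √10 steps, and nuclei were counted after 5 days.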

[2] = compound: C1/C(=C\C2=CC=CS2)/C(=O)/C(=C/C3=CC=CS3)/C1 + CS(=O)(=O)N1CCN(Cc2cc3nc(-c4cccc5[nH]ncc45)nc(N4CCOCC4)c3s2)CC1 [Pictilisib] (partner 1 µM)
Summary of the method: as §1

[3] = compound: C[C@]12O[C@H](C[C@]1(O)CO)n1c3ccccc3c3c4c(c5c6ccccc6n2c5c31)CNC4=O [Lestaurtinib] + CS(=O)(=O)N1CCN(Cc2cc3nc(-c4cccc5[nH]ncc45)nc(N4CCOCC4)c3s2)CC1 [Pictilisib] (partner 1 µM)
Summary of the method: as §1

[4] = compound: C1/C(=C\C2=CC=CS2)/C(=O)/C(=C/C3=CC=CS3)/C1 + CS(=O)(=O)CCNCc1ccc(-c2ccc3ncnc(Nc4ccc(OCc5cccc(F)c5)c(Cl)c4)c3c2)o1 [Lapatinib] (partner 2 µM)
Summary of the method: as §1

Row | Cell Line | relative viability ([1]; first compound 0.005 µM) | relative viability ([1]; first compound 0.01581 µM) | relative viability ([1]; first compound 0.05 µM) | relative viability ([1]; first compound 0.1581 µM) | relative viability ([1]; first compound 0.5 µM) | relative viability ([2]; first compound 0.2 µM) | relative viability ([2]; first compound 0.6325 µM) | relative viability ([2]; first compound 2 µM) | relative viability ([2]; first compound 20 µM) | relative viability ([3]; first compound 0.005 µM) | relative viability ([3]; first compound 0.01581 µM) | relative viability ([3]; first compound 0.05 µM) | relative viability ([3]; first compound 0.1581 µM) | relative viability ([3]; first compound 0.5 µM) | relative viability ([4]; first compound 0.2 µM) | relative viability ([4]; first compound 0.6325 µM) | relative viability ([4]; first compound 2 µM) | relative viability ([4]; first compound 20 µM) | relative viability ([2]; first compound 6.325 µM) | relative viability ([4]; first compound 6.325 µM)
1 | NCI-H1651 | 0.63 | 0.775 | 0.59 | 0.653 | 0.406 | 0.527 | 0.596 | 0.646 | 0.516 | 0.59 | 0.736 | 0.309 | 0.542 | 0.286 | 0.81 | 0.93 | 0.793 | 0.769 |  | 
2 | NCI-H1666 | 0.769 | 0.807 | 0.944 | 0.912 | 0.704 | 0.587 | 0.281 | 0.408 | 0.309 | 0.46 | 0.486 | 0.39 | 0.358 | 0.388 | 0.633 | 0.59 | 0.565 | 0.614 | 0.273 | 0.561
3 | NCI-H1734 | 0.56 | 0.499 | 0.442 | 0.444 | 0.253 | 0.466 | 0.447 | 0.487 | 0.501 | 0.444 | 0.399 | 0.316 | 0.251 | 0.196 | 1.02 | 1.05 | 1.17 | 1.09 | 0.44 | 0.906
4 | NCI-H1755 | 0.723 | 0.791 | 0.806 | 0.638 | 0.559 | 0.475 | 0.436 | 0.435 | 0.386 | 0.444 | 0.492 | 0.211 | 0.269 | 0.175 | 1.07 | 1.03 | 1.09 | 0.993 | 0.353 | 0.882
5 | NCI-H1792 | 0.485 | 0.567 | 0.336 | 0.543 | 0.256 | 0.257 | 0.314 | 0.298 | 0.247 | 0.316 | 0.302 | 0.243 | 0.141 | 0.129 | 0.819 | 0.915 | 1.04 | 0.899 |  | 
6 | NCI-H1793 | 0.506 | 0.481 | 0.459 | 0.542 | 0.421 | 0.409 | 0.202 | 0.291 | 0.352 | 0.319 | 0.224 | 0.235 | 0.34 | 0.263 | 0.913 | 0.611 | 0.86 | 0.674 | 0.31 | 0.519
7 | NCI-H1915 | 0.275 | 0.266 | 0.284 | 0.263 | 0.217 | 0.953 | 0.896 | 0.981 | 0.788 | 0.945 | 0.966 | 0.654 | 0.418 | 0.282 | 0.984 | 0.996 | 0.964 | 1.03 | 0.839 | 0.937
8 | NCI-H1944 | 0.419 | 0.481 | 0.442 | 0.463 | 0.317 | 0.35 | 0.333 | 0.357 | 0.341 | 0.352 | 0.313 | 0.313 | 0.305 | 0.248 | 0.735 | 0.695 | 0.864 | 0.748 | 0.162 | 0.782
9 | NCI-H1975 | 0.395 | 0.39 | 0.356 | 0.36 | 0.338 | 0.314 | 0.265 | 0.328 | 0.265 | 0.275 | 0.252 | 0.205 | 0.217 | 0.171 | 1.01 | 0.789 | 0.966 | 0.823 | 0.26 | 0.613
10 | NCI-H1993 | 0.62 | 0.666 | 0.729 | 0.499 | 0.428 | 0.877 | 0.793 | 0.851 | 0.79 | 0.802 | 0.724 | 0.69 | 0.716 | 0.663 | 0.815 | 0.783 | 0.731 | 0.781 | 0.684 | 0.685
11 | NCI-H2009 | 0.373 | 0.392 | 0.399 | 0.36 | 0.347 | 0.911 | 0.959 | 0.833 | 0.846 | 0.795 | 0.691 | 0.43 | 0.54 | 0.149 | 0.882 | 0.872 | 1.02 | 0.917 | 0.691 | 0.868
12 | NCI-H2023 | 0.241 | 0.254 | 0.231 | 0.183 | 0.105 | 0.282 | 0.254 | 0.241 | 0.23 | 0.255 | 0.27 | 0.167 | 0.155 | 0.0782 | 0.877 | 0.87 | 0.889 | 0.67 | 0.214 | 0.734
13 | NCI-H2085 | 0.55 | 0.583 | 0.664 | 0.597 | 0.551 | 0.449 | 0.487 | 0.534 | 0.432 | 0.482 | 0.474 | 0.465 | 0.476 | 0.49 | 0.876 | 0.768 | 0.876 | 0.701 | 0.405 | 0.692
14 | NCI-H2087 | 0.289 | 0.338 | 0.258 | 0.207 | 0.206 | 0.78 | 0.959 | 0.986 | 0.822 | 0.872 | 0.745 | 0.53 | 0.689 | 0.322 | 0.866 | 0.825 | 1.08 | 1.09 | 0.552 | 0.894
15 | NCI-H2126 | 0.582 | 0.593 | 0.623 | 0.536 | 0.553 | 0.511 | 0.477 | 0.505 | 0.488 | 0.493 | 0.525 | 0.415 | 0.449 | 0.411 | 0.774 | 0.751 | 0.787 | 0.745 | 0.485 | 0.691
16 | NCI-H2170 | 0.461 | 0.489 | 0.441 | 0.43 | 0.383 | 0.334 | 0.341 | 0.31 | 0.313 | 0.285 | 0.257 | 0.304 | 0.293 | 0.223 | 0.301 | 0.255 | 0.282 | 0.283 | 0.278 | 0.232
